How the values were obtained:
Format in all cases: cell-based
[1] = tested on: SK-OV-3; assay: Cell growth inhibition test, SK-OV-3; details: Homo sapiens, 72 h; SK-OV-3, Ovary cancer, 3 days, CellTiter-Glo
Description: (§1) A cell growth inhibition test was carried out by treating a cultured cancer cell line with a test compound for a given period and then counting the number of viable cells by CellTiter-Glo Luminescent Cell Viability Assay (manufactured by Promega Corp.).
(§2) The following cells were inoculated to a 384-well plate containing the compound prepared in advance at predetermined concentrations. […]
(§3) The cells thus inoculated were cultured at 37° C. for 3 days under 5% CO2. […] Then, luminescence intensity was measured using a plate reader.
(§4) The number of viable cells and luminescence intensity have been confirmed to correlate with each other. Therefore, the rate of cell growth was calculated according to the following expression: Rate of cell growth (T/C %) of a test compound-supplemented well=100×[(B−C)/(A−C)] wherein A represents the luminescence intensity (final culture date) of a test compound-free well; B represents the luminescence intensity (final culture date) of a test compound-containing well; and C represents the luminescence intensity (day of cell inoculation) of a well at the start of contact of the cells with the test compound.
(§5) T/C % at the concentration of each of the serially diluted test compounds was determined. […]

[2] = tested on: AN3CA; assay: Cell growth inhibition test, AN3CA; details: Homo sapiens, AN3-CA, 72 h, Endometrial cancer, 3 days, CellTiter-Glo
Description: as §1, §2, §3, §4, §5

[3] = tested on: A549; assay: Cell growth inhibition test, A549; details: Homo sapiens, 72 h; A549, Lung cancer, 3 days, CellTiter-Glo
Description: as §1, §2, §3, §4, §5

[4] = tested on: CAPAN-2; assay: Cell growth inhibition test, CAPAN-2; details: Homo sapiens, 72 h; CAPAN-2, Pancreatic cancer, 3 days, CellTiter-Glo
Description: as §1, §2, §3, §4, §5

[5] = tested on: HT-1080; assay: Cell growth inhibition test, HT-1080; details: Homo sapiens, 72 h; HT-1080, Bone and soft tissue tumor, 3 days, CellTiter-Glo
Description: as §1, §2, §3, §4, §5

Row | Structure (SMILES) | GI50 [1] | GI50 [2] | GI50 [3] | GI50 [4] | GI50 [5]
1 | CCOc1ccc(Cl)cc1C(=O)NCC(C)(C)CC(=O)Nc1c([C@H](C)CN(C)C)n(C)n(-c2ccccc2)c1=O [Example 68, 5-Chloro-N-[4-({5-[(1R)-2-(dimethylamino)-1-methylethyl]-1-methyl-3-oxo-2-phenyl-2,3-dihydro-1H-pyrazol-4-yl}amino)-2,2-dimethyl-4-oxobutyl]-2-ethoxybenzamide] | 0.51 µM | 0.74 µM | 0.91 µM | 0.64 µM | 0.22 µM
2 | CCOc1ncc(Cl)cc1C(=O)NCC(C)(C)CC(=O)Nc1c([C@H](C)CN(C)C)n(C)n(-c2ccccc2)c1=O [Example 73, 5-Chloro-N-[4-({5-[(1R)-2-(dimethylamino)-1-methylethyl]-1-methyl-3-oxo-2-phenyl-2,3-dihydro-1H-pyrazol-4-yl}amino)-2,2-dimethyl-4-oxobutyl]-2-ethoxypyridine-3-carboxamide] | 0.98 µM | 2.2 µM | 2 µM | 0.98 µM | 0.52 µM
3 | CCOc1cc(F)c(Cl)cc1C(=O)NCC(C)(C)CC(=O)Nc1c(COC)n(C)n(-c2ccccc2)c1=O [Example 113, 5-Chloro-2-ethoxy-4-fluoro-N-(4-{[5-(methoxymethyl)-1-methyl-3-oxo-2-phenyl-2,3-dihydro-1H-pyrazol-4-yl]amino}-2,2-dimethyl-4-oxobutyl)benzamide] | 0.7 µM | 1.4 µM | 1.1 µM | 0.75 µM | 0.35 µM

— patent US20170107207A1, “AMINOPYRAZOLONE DERIVATIVE” (DAIICHI SANKYO COMPANY, LIMITED, priority 2014, published 2017)
